Reference: ChEMBL document CHEMBL5107983, “Adipocyte fatty acid binding protein 4 (FABP4) inhibitors. An update from 2017 to early 2022” (Eur J Med Chem, 2022)

Tests used:
[1] = target: T1, Fatty acid-binding protein, adipocyte (Homo sapiens, UniProt P15090); assay: Inhibition of human FABP4
[2] = target: T1, Fatty acid-binding protein, adipocyte; assay: Inhibition of FABP4 (unknown origin) incubated for 10 mins by fluorescence based analysis
[3] = target: T1, Fatty acid-binding protein, adipocyte; assay: Displacement of 1,8-ANS from human recombinant FABP4 incubated for 4 mins by fluorescence based analysis

T1 sequence (P15090 whole entry): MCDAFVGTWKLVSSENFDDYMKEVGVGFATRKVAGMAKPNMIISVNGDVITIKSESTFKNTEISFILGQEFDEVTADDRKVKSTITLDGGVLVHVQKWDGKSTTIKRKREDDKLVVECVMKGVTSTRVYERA

Structure (SMILES) | IC50 [2] [µM] | further results
O=C(O)c1cccc(NS(=O)(=O)c2ccc(Br)c3ccccc23)c1 | – | IC50 [1]: 5.5 µM
O=C(O)Cc1cn(-c2ccccc2-c2nc(-c3ccc4ccccc4c3)c(-c3ccccc3)s2)nn1 | 3.7 | –
CC(C)OC(=O)C(C(=O)C(F)(F)F)c1cc(NS(=O)(=O)c2ccccc2)ccc1O (configuration not stated) | – | IC50 [3]: 3.5 µM
C=CCn1c(=O)[nH]c(=O)c2[nH]c(-c3ccc(OCCNC(=O)c4ccccc4)cc3)cc21 | 2.23 | –
COc1cc(Br)c(C(C)(C)C)cc1S(=O)(=O)Nc1ccccc1C(=O)O | – | IC50 [1]: 1.5 µM

The next lines start with results.

IC50 [2] [µM] | Structure (SMILES) | further results
5.59 | O=C(O)Cc1cn(-c2ccccc2-c2nc(-c3ccccc3)c(-c3ccccc3)s2)nn1 | –
4.31 | O=C(O)Cc1cn(-c2ccccc2-c2nc(-c3ccc(Cl)cc3)c(-c3ccccc3)s2)nn1 | –
